The results in this text go back to patent US8604048B2, “Pyridocarbazole type compounds and applications thereof” (Centre National de la Recherche Scientifique, priority 2009, dated 2013).

Assay [1] addresses T1, recombinant human LIMK1 (Homo sapiens, UniProt P53667).
T1 construct: 6His (N); purchased Millipore 14-656
Briefly: Radiometric LIMK1 kinase assay. The following applies: Lineweaver-Burk plots. The class given is biochemical. The procedure: Compounds were tested in a radiometric LIMK1 assay performed in a final volume of 25 μl containing 3 μl of compound or equivalent amount of DMSO as control, 2 μl (1 ng) of N-terminal 6His-tagged recombinant human LIMK1 (Millipore #14-656, in 20 mM MOPS pH=7.0, 1 mM EDTA, 0.01% NP-40, 5% glycerol, 0.1% β-mercaptoethanol, 1 mg·ml^−1 Bovine Serum Albumin) and a mixture containing […] pH=7.0, 200 μM EDTA, 70 μM of recombinant GST-cofilin 1, 25 mM Mg(OAc)2, and 360 μM [γ-^32P]-ATP. Assays were performed at 30° C. for 10 minutes before termination by the addition of 5 μl of 3% orthophosphoric acid. 25 μL aliquots were then spotted onto P80 filter square (4 cm^2). Filters were rinsed three times for 5 minutes by 0.5% orthophosphoric acid at 4° C. and transferred to scintillation vial. Following addition of scintillation cocktail (Ultima Gold, Perkin-Elmer), ^32P incorporation was measured using a scintillation counter.
FIG. 10 illustrates the inhibition of LIMK1 by Compound 1 (H06). Radiometric LIMK1 kinase assay was performed as described in Example 2; the following conditions were tested: without LIMK1 (‘−LIMK1’), with LIMK1 (1 ng) in presence of 5 μM H06 (‘5 μM H06’), 25 μM H06 (‘25 μM H06’) or with equivalent amount of DMSO (‘Ctl’).
Error bars represent standard error mean. […]

Another assay relates to MCF-7 cells. Put plainly: Cell growth test (MTT), MCF-7. The format is cell-based. The following applies: Homo sapiens, MCF7; MCF-7, MTT test after 48 h; read-out: IC50 (concentration necessary to inhibit 50% of cell growth). The procedure: (§1) The cell growth tests are carried out in transparent 96-well microplates (Greiner) after having seeded 100 μl/well of a cell solution having 2·10^5 cells/ml to 5·10^5 cells/ml (depending on the cell lines). After incubating for 24 h at 37° C. with 5% CO2, the culture medium is removed and replaced with solutions of the molecule to be tested at various concentrations. The cells are incubated with these molecules for an additional 48 h at 37° C. with 5% CO2. After elimination of the medium, the cells are washed with blank RPMI (Gibco, Invitrogen) then incubated with 3-(4,5-dimethylthiazol-2-yl)-2,5-diphenyltetrazolium bromide or MTT (0.5 mg/ml final concentration) for 4 h at 37° C. with 5% CO2. MTT (Sigma Aldrich) makes it possible to estimate the viability of the cells by measuring the activity of a mitochondrial enzyme. Indeed, in living cells, mitochondrial dehydrogenases are capable of cleaving the tetrazolium ring, thus leading to the formation of formazan crystals that are insoluble in an aqueous medium. These crystals are dissolved with the addition of a solubilizing solution (isopropanol, 10% Triton X100, 0.1 N HCl). After stirring, the absorbance is measured at 570 nm using the FLUOstar OPTIMA microplate reader. […]
(§2) The viability of the cells was evaluated using an MTT test after 48 h of exposure with various concentrations of molecules (from 100 μM to 0.001 μM). […]

Another assay relates to NCI-H460 cells. Put plainly: Cell growth test (MTT), NCI-H460. The class given is cell-based. The following applies: Homo sapiens; NCI-H460, MTT test after 48 h; read-out: IC50 (concentration necessary to inhibit 50% of cell growth). The procedure:
as §1, §2

For another assay, the system named is MES-SA cells. Briefly: Cell growth test (MTT), MES-SA. To be noted: Homo sapiens, MTT test after 48 h, read-out: IC50 (concentration necessary to inhibit 50% of cell growth). The format is cell-based. Here is the method: as §1, §2
In another assay the test system is 786-O cells. Put plainly: Cell growth test (MTT), 786-O. The class given is cell-based. The following applies: Homo sapiens, 786-0, MTT test after 48 h, read-out: IC50 (concentration necessary to inhibit 50% of cell growth). Here is the method:
as §1, §2

In a further assay the test system is purified tubulin. Briefly: In vitro assembly of purified tubulin. The class given is biochemical. The following applies: tubulin 1 mg/ml; Compound 1 at 25, 50, 100 μM. Here is the method:
FIG. 5 compares the effects of the Compound 1 of the invention with the effect of paclitaxel (Taxol®) on the assembly of the tubulin purified in vitro. Purified tubulin (1 mg/ml) is incubated in PEM buffer in the presence of GTP (1 mM), MgCl2 (5 mM), DAPI (10 μM) at 37° C. The effect of Compound 1 of the invention at various concentrations (×25 μM, ⊚ 50 μM and Δ 100 μM) is compared to that of paclitaxel (Taxol®) (▪) and of DMSO ( ? );
In order to know whether Compound 1 of the invention exerts its stabilizing effect via a direct action on tubulin, such as paclitaxel does, or by means an effector, its effect on the in vitro assembly of tubulin in microtubules has been analyzed. The first experiments were carried out on purified tubulin (1 mg/ml).

Assay [2] has as its target T1, recombinant human LIMK1. Put plainly: LIMK1 inhibition reversibility assay (size-exclusion chromatography). To be noted: 2 μM compound, input vs flow-through after size-exclusion chromatography. The class given is biochemical. The procedure: N-terminal 6H s-tagged recombinant human LIMK1 (Millipore #14-656, 62.5 ng) was incubated with […] Compound 1 (or equivalent amount of DMSO) for 10 minutes at 4° C. in a final volume of 100 μL. Size-exclusion chromatography of this mixture was then performed using 1 ml Biospin P-6 column (Biorad, equilibrated in 20 mM MOPS pH=7.0, 1 mM EDTA, 0.01% NP-40, 5% glycerol, 0.1% β-mercaptoethanol, 1 mg·ml^−1 Bovine Serum Albumin). LIMK1 kinase activity in input and flow-through were then assayed by radiometric LIMK1 kinase assay.
LIMK1 inhibition reversibility was assayed in vitro, in the conditions of Example 2, in the presence of 2 μM Compound 1 (H06), prior (‘input’) or after size-exclusion chromatography (‘flow-through’). Error bars represent standard error mean.

T1 sequence (P53667 whole entry): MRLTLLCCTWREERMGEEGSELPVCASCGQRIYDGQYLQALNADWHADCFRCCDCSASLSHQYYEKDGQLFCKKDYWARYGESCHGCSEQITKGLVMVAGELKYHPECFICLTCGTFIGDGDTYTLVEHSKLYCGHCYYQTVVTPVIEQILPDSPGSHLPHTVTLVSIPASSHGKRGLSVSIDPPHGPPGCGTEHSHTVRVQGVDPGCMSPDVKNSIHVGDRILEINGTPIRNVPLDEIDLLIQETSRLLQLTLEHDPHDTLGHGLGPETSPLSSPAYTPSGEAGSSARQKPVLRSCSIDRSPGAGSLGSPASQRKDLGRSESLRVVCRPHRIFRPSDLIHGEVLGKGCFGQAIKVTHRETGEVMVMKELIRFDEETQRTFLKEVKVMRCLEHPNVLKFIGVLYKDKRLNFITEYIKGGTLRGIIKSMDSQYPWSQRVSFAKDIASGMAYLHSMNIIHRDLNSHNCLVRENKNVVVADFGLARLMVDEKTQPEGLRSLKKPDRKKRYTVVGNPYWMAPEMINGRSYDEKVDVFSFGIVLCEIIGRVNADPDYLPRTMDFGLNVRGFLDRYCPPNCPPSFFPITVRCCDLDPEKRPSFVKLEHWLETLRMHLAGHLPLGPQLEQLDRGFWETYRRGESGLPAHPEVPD

Turning to `Cc1c2cc[nH]c(=O)c2c(C)c2c1[nH]c1ccc(OC(=O)c3ccccc3)cc12` [Compound 1, 9-benzoyloxy-5,11-dimethyl-2H,6H-pyrido[4,3-b]carbazol-1-one], the “Inhibition mechanism on LIMK1” value at recombinant human LIMK1 [1] (70 nM and 280 nM compound) is listed as “ATP competitor”. The Ki on recombinant human LIMK1 [1] (ATP competition) was around 0.06 µM. Also, the IC50 with MCF-7 cells was 62.2 µM; in the assay with NCI-H460 cells, 6.65 µM; in the assay with MES-SA cells it was 26 µM; in the assay on 786-O cells it was 55.1 µM. Further, the “Assembly of purified tubulin in vitro” value in the assay with purified tubulin is “No assembly is observed”. Further, the “Reversibility of LIMK1 inhibition in vitro” value on recombinant human LIMK1 [2] is reported as “reversible”.
